In US5905089A, “Use of sesquiterpene lactones for treatment of severe inflammatory disorders” (Board of Supervisors of Louisiana State University and …, priority 1998, dated 1999):

How the values were obtained:
COX-2 [1] = experiment: COX-2 expression in LPS-stimulated RAW 264.7 cells (Western blot); format: cell-based, murine; conditions: parthenolide 1 μg/ml with DTT 100 μM, 2-ME 50 μM or Cys 150 μM; LPS 1 μg/ml, 8h; FIG. 6B
Procedure: (§1) Rat (Sprague-Dawley) alveolar macrophages were collected by broncho-alveolar lavage as described by Lee et al., J. Biol. Chem., vol. 267, pp. 25934-25938 (1992). The murine macrophage cell line RAW 264.7 (ATCC no. TIB-71) was cultured in Dubecco's modified Eagle's medium (DMEM) containing 10% heat-inactivated fetal bovine serum (FBS, Intergen). For the cyclooxygenase activity assay, cells were seeded in 24 well plates, and after near-confluency, cells were treated with aspirin (250 μM) for 2.5h to inactivate endogenous cyclooxygenase. […] COX activity was determined by measuring prostaglandin E2 concentrations in cells incubated with arachidonic acid (30 μM) for 10 minutes as described in Lee et al. (1992).
(§2) The protein levels of COX-2 and GAPDH were assessed by Western blot analysis using polyclonal antibodies as described in Lee et al. (1992). Polyclonal antibodies for IL-1α and JNK-1 were purchased from Genzyme and Santa Cruz Biotech, respectively.
(§3) Parthenolide suppressed LPS-stimulated tyrosine phosphorylation of various proteins in RAW 264.7 cells as assessed by antiphosphotyrosine immunoblot, depicted in FIG. 5A. This inhibition was correlated with the suppressed expression of COX-2 and IL-1α. RAW 264.7 cells were pretreated with parthenolide in various concentrations or with herbimycin A (0.5 μg/ml) for 3h, and then stimulated with LPS (1 μg/ml) in the presence of the inhibitors for 30 min. […] Therefore, the extent of tyrosine phosphorylation of JNK-1 was assessed by the electrophoretic mobility shift of phosphorylated JNK-1 as shown in FIG. 5B. Parthenolide inhibited tyrosine phosphorylation of JNK-1. Another protein tyrosine kinase inhibitor, herbimycin A ([…]), inhibited tyrosine phosphorylation of the MAPK subfamily.
(§4) The mechanism by which parthenolide inhibits protein tyrosine phosphorylation is not currently known. It has been speculated that the tyrosine kinase inhibitor herbimycin A inactivates p60^v-src kinase by irreversibly binding to the sulphydryl (SH) groups of p60^v-src kinase. Y. Uehara et al., Biochem. Biophys. Res. Commun., vol. 163, pp. 803-809 (1989). The inactivation by herbimycin may occur through conjugation between highly polarized double bonds in the benzoquinone moiety of herbimycin A and the SH group of sulphydryl compounds. Without wishing to be bound by this theory, the α-methylenebutyrolactone in parthenolide may interact with biological nucleophiles such as sulphydryl groups. Indeed, pretreating cells with sulphydryl compounds abrogated the inhibitory effect of parthenolide on LPS-induced activation of MAPKs as shown in FIG. 6A. […]

MAPKs = experiment: Tyrosine phosphorylation / activation of MAPKs in RAW 264.7 cells; format: cell-based, murine; conditions: for effect on parthenolide inhibition of LPS-induced activation of MAPKs: parthenolide 1 μg/ml with DTT 100 μM, 2-ME 50 μM or Cys 150 μM, LPS 1 μg/ml, 30 min, FIG. 6A
Procedure: as §1
(§5) This detection technique was carried out essentially as described in Chanmugan et al. (1995) using 4G10 monoclonal antiphosphotyrosine antibody (UBI) and the ECL detection system (Amersham).
as §3
The mechanism by which parthenolide inhibits protein tyrosine phosphorylation is not currently known. It has been speculated that the tyrosine kinase inhibitor herbimycin A inactivates p60^v-src kinase by irreversibly binding to the sulphydryl (SH) groups of p60^v-src kinase. Y. Uehara et al., Biochem. Biophys. Res. Commun., vol. 163, pp. 803-809 (1989). The inactivation by herbimycin may occur through conjugation between highly polarized double bonds in the benzoquinone moiety of herbimycin A and the SH group of sulphydryl compounds. Without wishing to be bound by this theory, the α-methylenebutyrolactone in parthenolide may interact with biological nucleophiles such as sulphydryl groups. Indeed, pretreating cells with sulphydryl compounds abrogated the inhibitory effect of parthenolide on LPS-induced activation of MAPKs as shown in FIG. 6A. In FIG. 6, RAW 264.7 cells were pretreated with parthenolide (1 μg/ml) in the presence of DTT (dithiothreitol, 100 μM), 2-ME (2-mercaptoethanol, 50 μM), or Cys (L-cysteine, 150 μM), and were then stimulated with LPS (1 μg/ml). Cells were incubated for 30 min for antiphosphotyrosine immunoblot analysis (FIG. 6A) and 8h for COX-2 and IL-1α Western blot analyses (FIG. 6B). […] Whether parthenolide inhibits protein tyrosine phosphorylation by directly inhibiting PTKs or by inhibiting other target protein(s) that affect the activity of PTKs is not currently known.

IL-1α = IL-1α expression in LPS-stimulated RAW 264.7 cells (Western blot); format: cell-based, murine; conditions: parthenolide 1 μg/ml with DTT 100 μM, 2-ME 50 μM or Cys 150 μM; LPS 1 μg/ml, 8h; FIG. 6B
Procedure: as §1, §2, §3, §4

COX-2 [2] = experiment: Inhibition of the expression of COX-2 in LPS-stimulated macrophages (Table 1); format: cell-based; conditions: for IC50, inhibiting the expression of COX-2: IC50 determined at multiple dose levels; for inhibitory activity (COX-2 expression), in words: comparison among tested compounds
Procedure: Rat (Sprague-Dawley) alveolar macrophages were collected by broncho-alveolar lavage as described by Lee et al., J. Biol. Chem., vol.
Alveolar macrophages pretreated with aspirin were incubated with LPS (10 μg/ml) and various concentrations of parthenolide for 16h. The activity of de novo synthesized COX-2 was determined by measuring the levels of PGE2 produced from exogenous arachidonic acid. Activity of TNFα was determined by bioassay using L929 cells as described by Aggarwal et al., J. Biol. Chem., vol. […] Values in FIG. 2 are the means of triplicate samples for TNFα and duplicate samples for PGE2.

tumor = conditions: cited from earlier work
[3] = system: epidermal growth factor receptor; conditions: in vitro; cited from earlier work
ERK-2 [4] = experiment: Kinase activity of ERK-2 in RAW 264.7 cells (in-gel kinase assay, MBP substrate); format: cell-based, murine; conditions: 3h pretreatment, LPS 1 μg/ml 30 min; FIG. 5
Procedure: as §1
(§6) This assay was performed according to the method described by Kameshita et al., Anal. Biochem., vol. 183, pp. 139-143 (1989) using myelin basic protein (MBP) as a substrate.
(§7) Parthenolide suppressed LPS-stimulated tyrosine phosphorylation of various proteins in RAW 264.7 cells as assessed by antiphosphotyrosine immunoblot, depicted in FIG. 5A. This inhibition was correlated with the suppressed expression of COX-2 and IL-1α. […] Therefore, the extent of tyrosine phosphorylation of JNK-1 was assessed by the electrophoretic mobility shift of phosphorylated JNK-1 as shown in FIG. 5B. […]

ERK-1 [5] = experiment: Kinase activity of ERK-1 in RAW 264.7 cells (in-gel kinase assay, MBP substrate); format: cell-based, murine; conditions: 3h pretreatment, LPS 1 μg/ml 30 min; FIG. 5
Procedure: as §1, §6, §7

ERK-1 [6] = experiment: Tyrosine phosphorylation of ERK-1 in RAW 264.7 cells (antiphosphotyrosine immunoblot); format: cell-based, murine; conditions: 3h pretreatment, LPS 1 μg/ml 30 min; FIG. 5A
Procedure: as §1, §5, §7

ERK-2 [7] = experiment: Tyrosine phosphorylation of ERK-2 in RAW 264.7 cells (antiphosphotyrosine immunoblot); format: cell-based, murine; conditions: 3h pretreatment, LPS 1 μg/ml 30 min; FIG. 5A
Procedure: as §1, §5, §7

For O[C@H](CS)[C@H](O)CS (racemic) [DTT, dithiothreitol], the “effect on parthenolide-inhibited expression of COX-2” value (COX-2 [1]) was “recovered expression”, the “effect on parthenolide inhibition of LPS-induced activation of MAPKs” value (from here on “effect on parthenolide inhibition”) (MAPKs) was “abrogated” and the “effect on parthenolide-inhibited expression of IL-1α” value (IL-1α) was “recovered expression”.

For OCCS [Compound 2-ME, 2-mercaptoethanol], the “effect on parthenolide-inhibited expression of COX-2” value (COX-2 [1]) was “recovered expression”, the “effect on parthenolide inhibition” value (MAPKs) was “abrogated” and the “effect on parthenolide-inhibited expression of IL-1α” value (IL-1α) was “recovered expression”.

In the case of C=C1C(=O)O[C@@H]2/C=C(\C)[C@@H]3O[C@@H]3/C=C(/C(=O)OC)[C@H](O)[C@@H](OC(=O)[C@]3(C)O[C@@H]3C)[C@@H]12 [Compound 5, Melampodin A], the IC50, inhibiting the expression of COX-2 (COX-2 [2]) is reported as 0.5 µg/mL and the “inhibitory activity (COX-2 expression), in words” value (“inhibitory activity” below) (COX-2 [2]) is reported as “activities similar to that of parthenolide”.

Compound C=C1C(=O)O[C@@H]2[C@H]1CC[C@H](C)[C@]1(CCC(=O)O1)[C@@]2(C)O [Compound 8, Psilostachyin A] has an IC50, inhibiting the expression of COX-2 (COX-2 [2]) of 1.3 µg/mL.

C=C1C(=O)O[C@@H]2/C=C(\C)CC/C=C(\C)CC[C@@H]12 [Compound 9, Costunolide] showed an IC50, inhibiting the expression of COX-2 (COX-2 [2]) of 1.6 µg/mL.

For C[C@@H]1C[C@@H]2OC(=O)[C@]3(C)[C@H]2[C@@H](OC3(C)O)[C@]2(C)C(=O)C=C[C@@H]12 (stereo partly shown) [Compound 10, Tenulin], the antitumor activity (tumor) is given as “antitumor activity”, the IC50, inhibiting the expression of COX-2 (COX-2 [2]) is given as 5.5 µg/mL and the “inhibitory activity” value (COX-2 [2]) is given as “significantly less than that of compounds 1-9”.

In the case of CC1=CCCC2(C)OC2C2OC(=O)C(C)C2CC1 (stereo not shown) [Compound 11, 11,13-dihydroparthenolide], the IC50, inhibiting the expression of COX-2 (COX-2 [2]) is reported as over 100 µg/mL and the “inhibitory activity” value (COX-2 [2]) is reported as “loss of inhibitory activity”.

With CC1C(=O)OC2C1CCC1(C)OC1CCC1(C)OC21 (stereo not shown) [Compound 12, 1(10)epoxy-11,13-dihydroparthenolide] the IC50, inhibiting the expression of COX-2 (COX-2 [2]) was over 100 µg/mL and the “inhibitory activity” value (COX-2 [2]) was “loss of inhibitory activity”.

Work on CC1=C2[C@H]3OC(=O)[C@@H](C)[C@@H]3CC[C@@]2(C)C=CC1=O [Compound 13, Santonin, reference compound] yielded an IC50, inhibiting the expression of COX-2 (COX-2 [2]) of over 100 µg/mL.

With N[C@@H](CS)C(=O)O [Cys, L-cysteine] the “effect on parthenolide-inhibited expression of COX-2” value (COX-2 [1]) was “recovered expression”, the “effect on parthenolide inhibition” value (MAPKs) was “abrogated” and the “effect on parthenolide-inhibited expression of IL-1α” value (IL-1α) was “recovered expression”.

For O=c1c(-c2ccc(O)cc2)coc2cc(O)cc(O)c12 [genistein], the “tyrosine-specific protein kinase activity of the EGF receptor” value [3] is listed as “inhibited”.

For C=C1C(=O)O[C@@H]2C[C@@H](C)[C@@H]3C=CC(=O)[C@@]3(C)[C@@H](O)[C@H]12 [helenalin, reference compound], the antitumor activity (tumor) is listed as “some antitumor activity”.

For COC1C=CC=C(C)C(=O)NC2=CC(=O)C=C(C2=O)C(OC)C(C)CC(OC)C(OC)C(C)C=C(C)C1OC(N)=O (stereo not shown) [herbimycin A, reference compound], the “kinase activity of ERK-2” value (ERK-2 [4]) was “dose-dependent inhibition”, the “kinase activity of ERK-1” value (ERK-1 [5]) was “dose-dependent inhibition” and the “tyrosine phosphorylation of ERK-1” value (ERK-1 [6]) was “dose-dependent inhibition”. For the same compound, the “tyrosine phosphorylation of ERK-2” value (ERK-2 [7]) was “dose-dependent inhibition” and the “tyrosine phosphorylation of the MAPK subfamily” value (MAPKs; 3h pretreatment (herbimycin A 0.5 μg/ml), LPS 1 μg/ml 30 min) was “inhibited”.

With Encelin [Compound 2] the IC50, inhibiting the expression of COX-2 (COX-2 [2]) was 0.1 µg/mL, the “inhibitory activity” value (COX-2 [2]; listed as Encelin) was “most active compound tested” and the “inhibitory activity” value (COX-2 [2]; listed as encelin) was “highest inhibitory activity”.
